In ChEMBL document CHEMBL3351857, “Synthesis and biological evaluation of 2,3'-diindolylmethanes as agonists of aryl hydrocarbon receptor” (Bioorg Med Chem Lett, 2014):
pEC50: −log10 of the molar value.

Assays:
[1] = molecular target: T1, Aryl hydrocarbon receptor (AhR) (Homo sapiens, UniProt P35869); experiment: Activation of AhR in human HepG2 cells assessed as fluorescence after 24 hrs incubation at 10 nM by EROD assay relative to control; assay type: cell-based; details: read-out: FC
T1 sequence (P35869 whole entry): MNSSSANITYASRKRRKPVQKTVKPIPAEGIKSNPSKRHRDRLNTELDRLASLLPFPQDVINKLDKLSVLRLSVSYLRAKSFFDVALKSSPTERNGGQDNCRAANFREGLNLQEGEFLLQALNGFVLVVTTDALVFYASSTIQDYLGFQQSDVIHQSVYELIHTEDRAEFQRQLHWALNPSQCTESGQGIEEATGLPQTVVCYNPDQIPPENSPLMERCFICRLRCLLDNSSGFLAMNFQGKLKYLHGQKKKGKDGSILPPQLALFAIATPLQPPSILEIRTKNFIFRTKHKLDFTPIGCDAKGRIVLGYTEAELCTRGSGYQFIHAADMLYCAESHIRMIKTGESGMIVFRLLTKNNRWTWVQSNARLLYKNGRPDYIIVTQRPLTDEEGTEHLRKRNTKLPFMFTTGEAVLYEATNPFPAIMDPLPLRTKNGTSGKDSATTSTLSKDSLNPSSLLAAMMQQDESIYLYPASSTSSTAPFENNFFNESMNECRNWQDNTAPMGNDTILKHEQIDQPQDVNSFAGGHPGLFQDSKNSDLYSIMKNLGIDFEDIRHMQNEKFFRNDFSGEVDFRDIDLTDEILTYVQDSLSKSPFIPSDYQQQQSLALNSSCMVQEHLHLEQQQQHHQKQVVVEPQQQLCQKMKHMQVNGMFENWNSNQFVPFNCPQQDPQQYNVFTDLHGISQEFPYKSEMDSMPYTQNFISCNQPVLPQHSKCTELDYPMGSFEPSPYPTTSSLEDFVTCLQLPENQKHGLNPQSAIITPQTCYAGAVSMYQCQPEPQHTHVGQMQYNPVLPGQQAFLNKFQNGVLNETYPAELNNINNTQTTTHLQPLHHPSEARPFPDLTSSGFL

Homo sapiens = species: Homo sapiens; experiment: Half life in human; assay type: ADME, organism-based; details: in vivo
[2] = molecular target: T2, Aryl hydrocarbon receptor (Homo sapiens, UniProt P35869); experiment: Activation of AhR in human HepG2 cells assessed as fluorescence after 24 hrs incubation by EROD assay; assay type: cell-based
T2 sequence (P35869 whole entry): T1 sequence (P35869 whole entry)

Row | Compound | fold induction at 24 h, 0.01 µM [1] | also measured
1 | O=Cc1c(Cc2c[nH]c3ccc(Cl)cc23)[nH]c2ccccc12 | 5 | –
2 | Clc1cc2c(cc1Cl)Oc1cc(Cl)c(Cl)cc1O2 [2,3,7,8-TETRACHLORODIBENZO-P-DIOXIN] | – | t1/2 (Homo sapiens): 7 yr
3 | Cn1cc(Cc2[nH]c3ccccc3c2C=O)c2ccccc21 | 6 | –
4 | Clc1ccc2[nH]cc(Cc3cc4ccccc4[nH]3)c2c1 | – | pEC50 [2]: < 5.17
